The target in test [1] is T1, SET7/9 (Homo sapiens, UniProt Q8WTS6).
T1 construct: purchased Cayman 10320
T1 sequence (Q8WTS6 1-366): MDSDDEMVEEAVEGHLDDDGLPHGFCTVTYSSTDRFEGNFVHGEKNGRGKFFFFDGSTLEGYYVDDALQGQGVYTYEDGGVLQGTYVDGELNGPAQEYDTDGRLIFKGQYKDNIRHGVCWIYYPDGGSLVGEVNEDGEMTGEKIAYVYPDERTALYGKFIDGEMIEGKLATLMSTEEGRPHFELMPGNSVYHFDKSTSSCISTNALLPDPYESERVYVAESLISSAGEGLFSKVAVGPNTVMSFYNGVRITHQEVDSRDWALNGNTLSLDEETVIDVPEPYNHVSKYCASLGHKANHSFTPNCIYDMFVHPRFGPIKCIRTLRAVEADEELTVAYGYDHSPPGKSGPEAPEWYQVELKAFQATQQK
Kind of test: Fluorescence polarization saturation binding of fluorescent probe to SET7/9. The conditions noted are these: FIG. 11A, FIG. 12. As to the method: Methods: The experiment was performed once, with two replicate wells for all methyltransferases per condition. The sole exception to this is NSD2 (see details below). The assay was performed in a ½ area, black, 96-well plate (Corning #3686) in a final volume of 30 μL. Methyltransferases (Table 1) were serially diluted two-fold in FP buffer (Cayman Catalog #600028) and 15 μL of a given dilution were added per well to the assay plate. Fifteen microliters of sinefungin probe 1A (10 nM) were added to each well, giving a final sinefungin probe 1A concentration of 5 nM. This concentration of sinefungin probe 1A was chosen because it had at least a 10-fold increase in fluorescence (excitation max 575 nm/emission max 615 nm) over background (buffer). The mixture was incubated in the dark at room temperature for 30 minutes and its fluorescence polarization was read using a BioTek Synergy 4.
(In general: In fluorescence polarisation assays a small probe gives low polarisation when free and higher when bound to something large.)

The target of test [2] is T1, SET7/9. Kind of test: Sinefungin Probe 1B displacement FP assay with SET7/9 (Epigenetics Screening Library profiling). The test is classed as binding. The conditions noted are these: SET7/9, FIG. 11B. The procedure: Profiling of a pre-production version of the Cayman Chemical Epigenetics Screening Library (Cayman Catalog Item #11076) against SET7/9 and GLP was performed in a similar manner using Sinefungin Probe 1B. For GLP, the enzyme concentration was raised to 500 nM to produce a robust signal:noise ratio. Data were analyzed in GraphPad Prism (v. 5.04) and/or GeneData (v. 9.01).
An analog of Sinefungin Probe 1A, Sinefungin Probe 1B, wherein the hexyl portion of the linker moiety is replaced with PEG3 and the Cal Fluor® Red 610 fluorophore moiety is replaced with the “Fluor585” (Texas Red)-derived fluorophore moiety, was tested for the ability to bind several methyltransferases, including SET7/9. […] Similar data have been observed for GLP and G9a.

The target of test [3] is T1, SET7/9. Nature of the test: Sinefungin Probe 1A competition FP assay with SET7/9. To be noted: for IC50: read-out: IC50 for displacement of Sinefungin Probe 1A. The test is classed as binding. The procedure: Methods: Carboxymethyl cellulose-purified SAM, SAH (Cayman Catalog #700145), and sinefungin were diluted in a semi-Log manner in FP buffer (Cayman Catalog #600028). Five microliters of these dilutions were added to the wells of a low-volume, black, 384-well plate (Nunc #264705). […] The assay was allowed to equilibrate at room temperature for 30 minutes in the dark. Fluorescence polarization was measured as above. The experiment was performed two independent times, each in duplicate.

Test [4] deals with T1, SET7/9. Kind of test: SET7/9 SAM-Screener high-throughput FP assay, Sinefungin Probe 1A displacement. The test is classed as binding. The conditions noted are these: SET7/9; sinefungin 50 μM; SAM.
Experimental: Methods: A collection of 14,400 compounds from the Maybridge HitFinder collection of compounds was assayed for the displacement of Sinefungin Probe 1A from SET7/9 in a high-throughput manner using the SET7/9 SAM-Screener FP assay Cayman Catalog Item #600490). Thirty microliters of assay buffer (50 mM Tris pH 8.0, 50 mM KCl, 5 mM CHAPS, 2 mM DTT) was added to every well of a black 384-well polystyrene microtiter plate (Thermo-Fisher 364576). To every well, excluding control wells, was added one microliter of a DMSO solution containing a test compound. Control wells received either 1 μl DMSO or 1 μl of a sinefungin solution. The final concentration of sinefungin control or test compounds in the assay was 50 μM or 10 μM, respectively. To every well of the plate was added 10 μl of a SET7/9 solution to give a final assay concentration of 30 nM. After a 15-minute incubation at ambient temperature, 10 μl of Sinefungin Probe 1A solution was added to every well to give a final assay concentration of 10 nM in a total assay volume of 50 μl Samples were analyzed using a Biotek Synergy H4 plate reader in fluorescence polarization mode after a 30-minute incubation at ambient temperature in the dark. Data were analyzed using GeneData (v. 9.01). […]
Setting [5] is: 30 nM SET7/9, 10 nM Sinefungin Probe 1A, FIG. 3.

As to `Nc1ncnc2c1ncn2[C@@H]1O[C@H](C[C@@H](N)CC[C@H](N)C(=O)O)[C@@H](OCc2cnnn2CCCCCCNC(=O)OC2CCN(C(=O)c3ccccc3C3=c4cc5c6c(c4Oc4c3cc3c7c4CCCN7CCC3)CCC[N+]=6CCC5)CC2)[C@H]1O` [Sinefungin Probe 1B], in test [1], the “affinity for SET7/9 compared with the other sinefungin probes” value was “essentially identical affinities”.

By Ki is commonly meant the equilibrium dissociation constant of an inhibitor or competing ligand from its target. For orientation: IC50 means the concentration that inhibits the measured activity by half. In the case of `Nc1ncnc2c1ncn2[C@@H]1O[C@H](C[C@@H](N)CC[C@H](N)C(=O)O)[C@@H](O)[C@H]1O` [sinefungin, Sinefungin], the Ki stood at 120 nM in test [2] and 168 nM in test [3] (SET7/9, read-out: Ki for displacement of Sinefungin Probe 1A). Moreover, in test [3] (setting [5]), the IC50 came out at 220 nM.

`Nc1ncnc2c1ncn2[C@@H]1O[C@H](CSCC[C@H](N)C(=O)O)[C@@H](O)[C@H]1O` [SAH, S-adenosylhomocysteine]: the “competition with probe binding” value in test [3] (setting [5]) is recorded as “did not compete with probe binding at concentrations below 1 μM”.

For the compound `C[S+](CC[C@H](N)C(=O)O)C[C@H]1O[C@@H](n2cnc3c(N)ncnc32)[C@H](O)[C@@H]1O` (stereo partly shown) [SAM, S-Adenosylmethionine, reference compound], the IC50 in test [3] (setting [5]) was 130 nM. Further, the “inhibition of probe binding (controls)” value in test [4] is reported as “fully inhibits probe binding”.

Source of the values: patent publication US9120820B2, “Fluorescent molecular probes for use in assays that measure test compound competitive binding with SAM-utilizing proteins” (CAYMAN CHEMICAL COMPANY, INCORPORATED, priority 2011, dated 2015).
